ChEMBL document CHEMBL1201862, “PubChem BioAssay data set” (2004)
Calls of active or inactive are those of the source.

Assays:
[1] = target: T1, Oxysterols receptor LXR-beta (Homo sapiens, UniProt P55055); format: functional, cell-based
T1 sequence (P55055 whole entry): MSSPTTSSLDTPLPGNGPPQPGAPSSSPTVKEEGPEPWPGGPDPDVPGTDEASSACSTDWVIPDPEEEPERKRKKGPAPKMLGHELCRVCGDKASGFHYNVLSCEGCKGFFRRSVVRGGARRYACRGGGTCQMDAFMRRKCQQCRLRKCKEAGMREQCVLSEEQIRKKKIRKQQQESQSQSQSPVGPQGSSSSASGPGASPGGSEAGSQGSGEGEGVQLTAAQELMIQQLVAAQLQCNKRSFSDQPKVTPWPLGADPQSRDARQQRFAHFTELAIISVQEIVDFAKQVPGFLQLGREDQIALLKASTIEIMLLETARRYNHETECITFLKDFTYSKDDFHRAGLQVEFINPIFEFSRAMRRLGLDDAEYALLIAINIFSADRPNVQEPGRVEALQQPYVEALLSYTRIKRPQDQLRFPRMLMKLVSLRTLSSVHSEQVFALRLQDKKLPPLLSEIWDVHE

[2] = target: T2, Ubiquitin carboxyl-terminal hydrolase BAP1 (Homo sapiens, UniProt Q92560); assay: inhibition of BAP1 ubiquitin hydrolase activity – biochemical, dose response (AID 714); format: functional
T2 sequence (Q92560 whole entry): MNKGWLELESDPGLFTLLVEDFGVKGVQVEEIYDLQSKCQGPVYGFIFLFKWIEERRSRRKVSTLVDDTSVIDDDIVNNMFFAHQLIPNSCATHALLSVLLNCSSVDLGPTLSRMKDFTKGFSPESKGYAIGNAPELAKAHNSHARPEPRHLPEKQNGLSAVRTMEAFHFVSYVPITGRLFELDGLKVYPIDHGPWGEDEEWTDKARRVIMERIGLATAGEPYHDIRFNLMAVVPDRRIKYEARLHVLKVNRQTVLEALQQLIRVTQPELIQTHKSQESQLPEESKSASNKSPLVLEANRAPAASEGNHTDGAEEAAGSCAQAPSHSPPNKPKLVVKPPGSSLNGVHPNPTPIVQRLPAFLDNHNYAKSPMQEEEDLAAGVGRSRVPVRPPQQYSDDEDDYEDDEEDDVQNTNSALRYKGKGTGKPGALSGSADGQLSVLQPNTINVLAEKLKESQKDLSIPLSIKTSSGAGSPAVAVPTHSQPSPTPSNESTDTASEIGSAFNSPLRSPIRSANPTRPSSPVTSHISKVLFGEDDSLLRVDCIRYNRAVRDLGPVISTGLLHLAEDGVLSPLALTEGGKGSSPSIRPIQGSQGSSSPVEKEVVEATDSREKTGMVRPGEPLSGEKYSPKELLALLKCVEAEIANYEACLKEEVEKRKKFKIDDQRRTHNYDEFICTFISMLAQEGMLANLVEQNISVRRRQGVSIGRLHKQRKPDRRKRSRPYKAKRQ

[3] = blockers of HIV-1 ZM109 envelope-driven cell-cell fusion – HeLa effector, CEM target cells, luciferase, cherry-pick, dose response (AID 652058); format: functional, cell-based;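 further: luciferase signal from HIV-1 Env mediated cell-cell fusion of effector and target cells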
[4] = off-target signal loss in HeLa-CEM21 co-culture – HeLa F-luc CTL cells, cherry-picked, counter-screen for HIV-1 Env fusion inhibitor project, dose response (AID 652040); format: functional, cell-based;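 further: potency for signal decrease marking cytotoxic or nonspecific inhibition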
[5] = target: T3, Tyrosine-protein phosphatase non-receptor type 7 (Homo sapiens, UniProt P35236); assay: HePTP tyrosine phosphatase activity blockers – biochemical, absorbance, leukemia target, primary screen (AID 521); format: functional
T3 sequence (P35236 whole entry): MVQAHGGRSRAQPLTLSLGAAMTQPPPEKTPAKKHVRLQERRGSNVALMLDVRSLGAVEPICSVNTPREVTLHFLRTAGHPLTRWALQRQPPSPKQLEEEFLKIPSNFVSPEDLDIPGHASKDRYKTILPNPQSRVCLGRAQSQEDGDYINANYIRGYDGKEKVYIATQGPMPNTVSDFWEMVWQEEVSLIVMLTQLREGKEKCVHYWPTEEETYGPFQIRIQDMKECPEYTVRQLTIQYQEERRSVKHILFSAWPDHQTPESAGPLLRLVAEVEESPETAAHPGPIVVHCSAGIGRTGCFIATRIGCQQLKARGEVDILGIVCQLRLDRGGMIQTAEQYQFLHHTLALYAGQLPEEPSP

[6] = target: T4, Heat shock factor protein 1 (Mus musculus, UniProt P38532); assay: decrease of HSF1-responsive luciferase luminescence – cell-based, NIH3T3, dose retest, confirmation (AID 2382); format: functional;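 further: NIH3T3 fibroblasts with HSF1-driven luciferase reporter stressed by proteasome inhibitor MG132; luminescence from HSF1-driven luciferase expression after 8 hours of MG132 stress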
T4 sequence (P38532 whole entry): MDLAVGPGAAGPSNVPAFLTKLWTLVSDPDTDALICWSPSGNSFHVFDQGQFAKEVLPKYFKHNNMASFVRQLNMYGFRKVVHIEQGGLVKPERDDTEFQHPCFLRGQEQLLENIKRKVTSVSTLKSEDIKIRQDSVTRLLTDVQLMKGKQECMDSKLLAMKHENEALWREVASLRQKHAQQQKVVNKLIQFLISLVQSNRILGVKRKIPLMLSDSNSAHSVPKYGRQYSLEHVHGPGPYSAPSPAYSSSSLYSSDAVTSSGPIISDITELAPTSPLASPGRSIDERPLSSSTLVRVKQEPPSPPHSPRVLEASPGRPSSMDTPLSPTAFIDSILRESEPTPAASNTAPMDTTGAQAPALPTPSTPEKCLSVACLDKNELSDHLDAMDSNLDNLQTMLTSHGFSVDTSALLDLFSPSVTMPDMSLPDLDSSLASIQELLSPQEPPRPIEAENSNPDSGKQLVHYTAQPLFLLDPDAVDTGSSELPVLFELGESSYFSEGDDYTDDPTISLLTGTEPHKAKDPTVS

[7] = HIV-1 AD8 envelope cell-cell fusion blockers – cherry-pick, dose response (AID 652062); format: functional, cell-based;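 further: luciferase signal from cell-cell fusion driven by HIV-1 clade B AD8 Env; potency is for inhibitors of fusion seen as a drop in luminescence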
[8] = blockers of HIV-1 envelope-mediated cell-cell fusion – cherry-pick, dose response (AID 652057); format: functional, cell-based
Estrogen receptor beta [9] = target: T5, Estrogen receptor beta (Homo sapiens, UniProt Q92731); assay: blockers of SRC-3 recruitment to ERβ – biochemical, ELISA, streptavidin-HRP readout, orthogonal assay, confirmation (AID 1060)
[10] = target: T6, Carboxy-terminal domain RNA polymerase II polypeptide A small phosphatase 1 (Homo sapiens, UniProt Q9GZU7); assay: CTDSP1 inhibitors, concentration-response, biochemical, absorbance readout, ultra-high-throughput screen actives (AID 540297); format: functional
T6 sequence (Q9GZU7 whole entry): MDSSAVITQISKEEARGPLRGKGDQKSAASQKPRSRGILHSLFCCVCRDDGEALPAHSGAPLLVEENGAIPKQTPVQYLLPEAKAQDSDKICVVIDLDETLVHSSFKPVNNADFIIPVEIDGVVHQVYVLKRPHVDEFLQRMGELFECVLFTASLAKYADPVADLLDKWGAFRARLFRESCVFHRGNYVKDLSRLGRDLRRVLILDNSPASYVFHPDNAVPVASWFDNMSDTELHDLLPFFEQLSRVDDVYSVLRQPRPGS

Estrogen receptor beta [11] = target: T5, Estrogen receptor beta
Streptokinase A = target: T7, Streptokinase A (Streptococcus pyogenes serotype M1, UniProt P10520); assay: viability-normalized secreted streptokinase activity reduction – plasminogen activation absorbance, OD405, dose response (AID 1914); format: functional, Streptococcus pyogenes M1 GAS;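 further: secreted streptokinase activity via plasminogen activation per viability signal from cell pellet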
T7 sequence (P10520 whole entry): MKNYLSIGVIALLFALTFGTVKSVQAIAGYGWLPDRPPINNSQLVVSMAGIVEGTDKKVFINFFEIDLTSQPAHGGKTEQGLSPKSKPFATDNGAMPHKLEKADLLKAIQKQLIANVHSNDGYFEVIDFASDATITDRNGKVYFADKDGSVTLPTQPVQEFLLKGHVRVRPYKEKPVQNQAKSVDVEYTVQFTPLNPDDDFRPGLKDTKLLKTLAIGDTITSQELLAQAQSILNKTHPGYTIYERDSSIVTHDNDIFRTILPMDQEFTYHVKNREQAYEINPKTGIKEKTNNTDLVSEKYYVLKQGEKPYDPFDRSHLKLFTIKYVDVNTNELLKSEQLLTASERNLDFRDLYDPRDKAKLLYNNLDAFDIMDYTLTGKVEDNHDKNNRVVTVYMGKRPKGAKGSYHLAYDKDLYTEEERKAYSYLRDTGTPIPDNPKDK

[12] = target: Induced myeloid leukemia cell differentiation protein Mcl-1 (Homo sapiens, UniProt Q07820); format: functional
[13] = test system: Streptococcus sp. 'group A'; assay: Streptococcus pyogenes SK(-)GAS viability under kanamycin – luminescence, BacTiterGlo, confirmation, counter-screen for streptokinase expression inhibitor project, dose response (AID 1900); format: functional, organism-based
Streptococcus = assay: GAS UMAA2166 growth inhibition – luminescence, BacTiterGlo, counter-screen for streptokinase expression inhibitor project, dose response (AID 1915); format: functional, organism-based;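 further: potency for reduction of bacterial viability or growth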
Prothrombin = Prothrombin (Homo sapiens, UniProt P00734); assay: Thrombin 1536 HTS Dose Response Confirmation. [Related pubchem assays: 1046 (Thrombin 1536 HTS; hits were confirmed in this assay)]; format: functional
[14] = target: T1, Oxysterols receptor LXR-beta; format: functional, cell-based; remark: listed apart in the source
[15] = target: G-protein coupled receptor 55 (Homo sapiens, UniProt Q9Y2T6); assay: selective activators of receptor GPR55 – imaging, U2OS cells, beta-arrestin-GFP redistribution, primary screen (AID 1961); format: functional
Paired box protein Pax-8 = Paired box protein Pax-8 (Homo sapiens, UniProt Q06710); assay: PAX8 transcriptional activity inhibition in RMG-I – RMG-I cells, luciferase, cherry-pick, dose response (AID 687027); format: functional, cell-based;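 further: luciferase reporter driven by Pax8 target thyroperoxidase promoter measured by SteadyGlo luminescence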
[16] = general cell-killing toxicity readout – plate reader, dry powder samples, cytotoxicity control for PAX8 inhibitor project, dose response (AID 743021); format: functional, cell-based
[17] = OVCAR8 cell viability loss – plate reader, dry powder samples, PAX8 project, dose response (AID 743197); format: functional, cell-based; details: OVCAR-8
[18] = OVCAR-3 cell viability loss – plate reader, dry powder samples, PAX8 inhibitor project, dose response (AID 743044); format: functional, cell-based
[19] = luciferase reporter signal suppression in cells – H4 neuroglioma cells, luminescence, dose response (AID 1990); format: functional, cell-based
[20] = Luminescence Cell-Based Dose Response HTS to Identify Inhibitors of 5'UTR Stem-Loop Driven Prion Protein mRNA Translation in H4 Neuroglioblastoma Cells. [Related pubchem assays: 1827 (Project Summary), 1813 (Primary HTS)]; format: functional
[21] = alpha-synuclein stem-loop luciferase translation blockers – H4 neuroglioma cells, luminescence, confirmation (AID 1988); format: functional, cell-based
[22] = HEK-293T viability loss after treatment – luminescence, T-cell screen hits, cytotoxicity control for TCR NF-kB inhibitor project, dose response (AID 489026); format: functional, cell-based;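 further: cells exposed to compound about 14 hours before the viability readout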

T5 sequence (Q92731 whole entry, the tested form may be a part): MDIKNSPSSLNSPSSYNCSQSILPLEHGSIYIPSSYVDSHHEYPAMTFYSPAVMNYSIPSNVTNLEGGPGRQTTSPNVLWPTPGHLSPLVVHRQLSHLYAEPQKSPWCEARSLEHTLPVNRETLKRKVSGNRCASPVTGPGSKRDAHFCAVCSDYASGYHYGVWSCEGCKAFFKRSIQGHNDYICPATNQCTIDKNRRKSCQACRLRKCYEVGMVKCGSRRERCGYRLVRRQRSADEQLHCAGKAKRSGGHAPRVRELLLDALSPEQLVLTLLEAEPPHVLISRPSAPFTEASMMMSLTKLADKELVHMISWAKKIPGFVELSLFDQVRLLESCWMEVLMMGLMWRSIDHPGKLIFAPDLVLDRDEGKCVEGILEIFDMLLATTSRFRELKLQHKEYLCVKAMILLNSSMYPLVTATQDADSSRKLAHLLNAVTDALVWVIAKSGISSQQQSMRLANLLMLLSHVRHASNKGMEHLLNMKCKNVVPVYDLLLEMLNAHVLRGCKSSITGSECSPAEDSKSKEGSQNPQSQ
Chain of Paired box protein Pax-8 (Q06710 whole entry): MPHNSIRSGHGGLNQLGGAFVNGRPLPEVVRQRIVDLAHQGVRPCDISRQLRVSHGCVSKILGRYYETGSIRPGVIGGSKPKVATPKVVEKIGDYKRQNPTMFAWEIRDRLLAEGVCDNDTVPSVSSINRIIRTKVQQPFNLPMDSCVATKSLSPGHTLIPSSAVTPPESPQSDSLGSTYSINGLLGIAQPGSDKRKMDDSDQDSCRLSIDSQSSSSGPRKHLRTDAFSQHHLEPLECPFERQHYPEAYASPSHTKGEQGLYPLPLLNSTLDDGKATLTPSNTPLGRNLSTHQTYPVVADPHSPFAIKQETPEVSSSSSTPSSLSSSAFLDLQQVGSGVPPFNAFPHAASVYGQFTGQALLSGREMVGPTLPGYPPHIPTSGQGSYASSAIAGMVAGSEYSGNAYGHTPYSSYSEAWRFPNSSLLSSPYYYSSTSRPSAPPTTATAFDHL
Chain of Induced myeloid leukemia cell differentiation protein Mcl-1 (Q07820 whole entry): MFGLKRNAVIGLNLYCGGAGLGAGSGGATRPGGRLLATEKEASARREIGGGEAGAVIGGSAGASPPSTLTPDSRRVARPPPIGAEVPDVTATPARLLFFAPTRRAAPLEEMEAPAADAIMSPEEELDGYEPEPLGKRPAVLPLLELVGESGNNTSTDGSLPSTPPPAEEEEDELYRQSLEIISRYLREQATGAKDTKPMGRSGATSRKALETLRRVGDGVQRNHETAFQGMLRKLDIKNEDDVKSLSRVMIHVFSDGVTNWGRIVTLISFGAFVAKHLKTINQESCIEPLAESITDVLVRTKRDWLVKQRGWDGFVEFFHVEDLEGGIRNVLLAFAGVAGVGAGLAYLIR
Chain of G-protein coupled receptor 55 (Q9Y2T6 whole entry): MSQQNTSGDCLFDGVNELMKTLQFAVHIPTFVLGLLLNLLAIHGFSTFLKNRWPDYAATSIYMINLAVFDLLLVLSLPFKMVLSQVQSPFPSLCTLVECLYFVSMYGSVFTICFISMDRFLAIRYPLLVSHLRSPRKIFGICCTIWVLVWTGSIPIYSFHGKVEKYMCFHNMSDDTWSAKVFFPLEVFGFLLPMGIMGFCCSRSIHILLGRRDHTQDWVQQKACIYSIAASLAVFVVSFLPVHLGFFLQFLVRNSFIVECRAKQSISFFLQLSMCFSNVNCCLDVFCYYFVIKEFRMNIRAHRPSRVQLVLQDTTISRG

## Nc1cccc2c1C(=O)N(CCOc1ccccc1F)C2=O
[1]
  EC50: > 67.6 µM (inactive)
cells
  EC50: > 67.6 µM (inactive)

## CCOC(=O)c1c(NC(=O)c2cccs2)sc(C)c1CC
[2]
  IC50: 30.4 µM (not active)

## c1ccc2c(c1)OCC(c1csc3ncnc(N4CCOCC4)c13)O2 (stereo unspecified)
[3]
  AC50: 11.6 µM (active)
[4]
  AC50: 21.4 µM (active)
[5]
  IC50: > 100 µM (not active)
[6]
  EC50: 171 µM (active)
[7]
  AC50: 4.95 µM (active)
[8]
  AC50: 4.1 µM (active)

## O=C1c2ccccc2-c2onc3c(Oc4ccccc4)cc(O)c1c23
Estrogen receptor beta [9]
  IC50: 37 µM (not active)

## COc1ccc2c(=O)c3c(=O)n(Cc4ccco4)c(-c4ccco4)nc3oc2c1
[10]
  IC50: 4.9 µM (active)
Estrogen receptor beta [11]
  IC50: > 50 µM (not active)

## COC(=O)c1c(NC(=O)Cc2cccs2)sc2c1CCCC2
Estrogen receptor beta [11]
  IC50: 4.51 µM (active)
Estrogen receptor beta [9]
  IC50: 103 µM (not active)
Streptokinase A
  EC50: 17.7 µM (active)
[12]
  IC50: 3.35 µM (active)
[13]
  EC50: 20.6 µM (active)
Streptococcus
  EC50: > 150 µM (not active)

## Cc1c(-c2ccccn2)c(=O)[nH]n1-c1ccc(F)cc1
[1]
  EC50: > 67.5 µM (inactive)
cells
  EC50: > 67.5 µM (inactive)

## Cc1ccc(N=C2Nc3ccccc3CS2)cc1
[1]
  EC50: > 67.5 µM (inactive)

## Cc1ccc(NC2=Nc3ccccc3CS2)cc1
cells
  EC50: > 67.5 µM (inactive)

## O=C(c1ccc([N+](=O)[O-])cc1)n1nc(-c2ccccc2)nc1NCc1ccc(F)cc1
Prothrombin
  IC50: 0.464 µM (active)

## OCCNc1ncnc2c1c(-c1ccccc1)c(-c1ccccc1)n2Cc1ccco1
[5]
  IC50: > 100 µM (not active)

## CCOC(=O)c1cnc(SCC(=O)Nc2sc(C)c(C)c2C#N)nc1N
[2]
  IC50: 18.7 µM (active)

## CC(C)C(OC(=O)c1cccs1)C(=O)NCc1ccco1 (stereo unspecified)
[5]
  IC50: > 100 µM (not active)

## O=c1c2cc(N3CCOCC3)ccc2[nH]c(=S)n1Cc1ccco1
Estrogen receptor beta [11]
  IC50: > 50 µM (not active)
Estrogen receptor beta [9]
  IC50: 6.02 µM (not active)

## CC(C)C[C@H](NC(=O)OCC1c2ccccc2-c2ccccc21)C(=O)O
[14]
  EC50: > 67.5 µM (inactive)

## CC1CCc2[nH]nc(C(=O)O)c2C1 (stereo unspecified)
Prothrombin
  IC50: > 50 µM (not active)

## O=C(NCc1ccco1)c1cc2nc(-c3ccc4c(c3)OCO4)cc(C(F)(F)F)n2n1
[15]
  EC50: > 32 µM (inactive)
[2]
  IC50: 20.4 µM (active)

## COc1ccc(N2C(=O)CSC2c2cccc(OC)c2OC)cc1 (stereo unspecified)
Prothrombin
  IC50: > 50 µM (not active)

## C[C@@H]1CN([C@@H](C)CO)C(=O)c2cc(NC(=O)Nc3ccc(F)cc3)ccc2O[C@@H](C)CCCCO[C@H]1CN(C)Cc1ccc(C(F)(F)F)cc1
Paired box protein Pax-8
  AC50: 6.74 µM (active)
[16]
  AC50: 1.84 µM (active)
[17]
  AC50: 51.7 µM (active)
[18]
  AC50: 16.3 µM (active)

## C[C@H](CO)N1C[C@H](C)[C@H](CN(C)S(=O)(=O)c2ccc(Cl)cc2)OCCCC[C@H](C)Oc2ccc(NC(=O)Nc3ccc(C(F)(F)F)cc3)cc2C1=O
Paired box protein Pax-8
  AC50: 4.52 µM (active)
[16]
  AC50: 34.6 µM (active)
[18]
  AC50: 60 µM (active)

## COc1ccc(/C=c2/sc3n(c2=O)C(c2ccccc2OC)C2=C(N=3)c3ccccc3CC2)cc1O (stereo unspecified)
[19]
  EC50: 0.112 µM (active)
Paired box protein Pax-8
  AC50: 2.28 µM (active)
[20]
  EC50: 13.9 µM (active)
[16]
  AC50: 52 µM (active)
[21]
  EC50: 0.403 µM (active)
[22]
  IC50: > 80 µM (inactive)
